From patent US20090175845A1, “METHODS FOR IDENTIFYING COMPOUNDS THAT MODULATE PHB DOMAIN PROTEIN ACTIVITY AND COMPOSITIONS THEREOF” (THE TRUSTEES OF COLUMBIA UNIVERSITY IN THE CITY OF NEW YORK, priority 2005, published 2009)

How the values were obtained:
[1] = molecular target: T1, NusA fused to the cholesterol binding domain of Podocin (amino acids 119-284) (Mus musculus, UniProt Q91X05); assay: In vitro cholesterol interaction, scintillation counting of bead-bound recombinant protein
T1 construct: made in house; host or cells: E. coli
T1 sequence (Q91X05 119-284): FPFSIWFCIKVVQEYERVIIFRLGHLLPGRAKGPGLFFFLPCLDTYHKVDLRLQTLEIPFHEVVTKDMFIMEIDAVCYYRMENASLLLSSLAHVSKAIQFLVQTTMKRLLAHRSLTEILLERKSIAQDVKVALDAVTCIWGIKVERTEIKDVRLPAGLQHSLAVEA
Protocol: In vitro cholesterol interaction. Podocin truncations were cloned into various bacterial expression vectors and tested for the expression of soluble recombinant fusion proteins. […] Purity of the preparation was confirmed on Coomassie gels. For in vitro cholesterol interaction assays 2-20 μg of affinity purified Podocin protein was bound to 30 μl of Ni+ beads and incubated with 0.1 μCi [^3H]cholesterol (Amersham) complexed with low amounts of cyclodextrine. After binding for 10 minutes at 37° C. beads were washed extensively and counted in a scintillation counter. To confirm equal loading of the beads aliquots of the bound protein were run on Coomassie gels. Competition experiments were performed with 1 μg of affinity purified Podocin protein fused to NusA or NusA alone as a control. Samples were incubated with radioactively labeled cholesterol in the absence (no cold competition) or presence (cold competition) of varying amounts of […]. Cold competition was approximately 100-fold excess of cold cholesterol. The sample was washed extensively and subjected to scintillation counting.
The importance of different regions of Podocin for cholesterol binding was tested by fusing them to the extracellular and transmembrane domains of Nephrin. […]

[2] = molecular target: T2, Podocin (Mus musculus, UniProt Q91X05); assay: Detergent-resistant membrane (DRM) fractionation by density gradient centrifugation; assay type: cell-based; settings: limited cholesterol depletion with MBCD; readdition of cholesterol, FIG. 1D
T2 construct: expressed in transfected cells; host or cells: HEK 293T
T2 sequence (Q91X05 1-385): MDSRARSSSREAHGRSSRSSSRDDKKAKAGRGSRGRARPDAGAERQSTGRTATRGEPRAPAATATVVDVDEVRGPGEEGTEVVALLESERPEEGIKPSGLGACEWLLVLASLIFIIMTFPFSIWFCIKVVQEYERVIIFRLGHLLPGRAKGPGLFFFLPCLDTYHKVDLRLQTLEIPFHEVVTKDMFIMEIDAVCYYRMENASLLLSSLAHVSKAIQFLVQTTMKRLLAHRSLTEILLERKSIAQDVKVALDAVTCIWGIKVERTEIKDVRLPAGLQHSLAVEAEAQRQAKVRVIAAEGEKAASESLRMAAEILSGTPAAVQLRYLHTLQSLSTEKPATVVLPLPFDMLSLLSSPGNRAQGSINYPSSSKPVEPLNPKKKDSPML
Protocol: Preparation of Detergent-Resistant Membrane Domains and Cholesterol Measurement—For preparation of low-density Triton® X-100—insoluble membrane domains (DRM; LDF) HEK 293T cells were homogenized by 20 strokes in a Dounce homogenizer in 1 ml of MBS buffer (250 mM NaCl, 5 mM EDTA, 10 mM Tris, pH 7.4, proteinase inhibitors) in the presence of 1% Triton® X-100 and centrifuged for ten minutes at 3,000×g at 4° C. The lysates were incubated for 45 minutes on ice in the presence of 1% Triton® X-100, adjusted to 45% sucrose and pipetted at the bottom of an ultracentrifuge tube. Samples were then overlaid with a sucrose step gradient (2 ml of 30% sucrose and 1 ml of 5% sucrose in MBS) as described previously {Huber, 2003 #205}. Gradients were centrifuged for 20 hours at 200,000×g at 4° C. in a swing-out rotor, and seven fractions ([…] each) were collected starting from the top and analyzed by SDS-PAGE. Cholesterol was measured using the Amplex® Red Cholesterol Assay Kit (Molecular Probes).
Cell Culture Studies. Most cell studies used HEK 293T cells that were grown in DMEM as described [Huber et al. (2001) J. Biol. Chem. 18:18]. Cholesterol-depleted cells were prepared by growing cells in DMEM with pravastatin (8 μM) for two days and then methyl-β-cyclodextrine (MBCD; 5 mM) for 30 minutes just before the experiment. […]

Compound: CC(C)CCC[C@@H](C)[C@H]1CC[C@H]2[C@@H]3CC=C4C[C@@H](O)CC[C@]4(C)[C@H]3CC[C@]12C [cholesterol]
- direct binding of [3H]cholesterol in vitro ([1]; Podocin fragments produced in E. coli, 10 minutes at 37° C.): sufficient for cholesterol binding
- cold competition of [3H]cholesterol binding ([1]; approximately 100-fold excess of unlabeled cholesterol): competed
- Podocin in DRM fractions [2]: could be reversed
